In patent publication US20190282600A1, “COMBINATION THERAPIES TARGETING TERT DEPENDENCY FOR CANCER THERAPY” (The Wistar Institute of Anatomy and Biology, priority 2018, published 2019):

Key:
Type in all cases: cell-based, Human
[1] = test system: NRAS mutant melanoma cells; experiment: Telomere length assay (TRF Southern blotting); conditions: 1 μM 6-thio-dG for 14 days
Procedure: (§1) FIGS. 2a to 2c show NRAS^mut melanoma cells (FIG. 2a), BRAF-V600E/NRAS mutant cells derived from melanoma patients resistant to BRAF/MEK inhibitors (FIG. 2b), or non-transformed melanocytes and fibroblasts (FIG. 2c) were treated with 6-thio-dG for 7 days. Cell viability was measured by Alamar Blue assay and calculated relative to DMSO-treated cells. […] Cell death was assessed by PSVUe staining. Percent of apoptotic cells is shown. […] Mean TRF length expressed as kilobase pairs is indicated at the bottom. […] FIG. 2g provides a bar graph showing that DNA damage was assessed by γH2AX staining. Data represent average from three independent experiments ±SEM. *p<0.05; **p<0.01; ***p<0.005 in unpaired Student's t-test. As presented in FIG. 2h, mice bearing established WM3000 or M93-047 NRAS^mut tumors were treated with vehicle control or 6-thio-dG (2.5 mg/kg i.p; q.d). Tumor volume was measured and average tumor volume (n=4) ±SEM was plotted vs. time.
Genomic DNA was prepared using Wizard genomic DNA purification kit (Promega) following manufacturer's instruction. […] The images were analyzed with Phosphorimager, visualized by Typhoon 9410 Imager (GE Healthcare), and processed with ImageQuant 5.2 software (Molecular Dynamics).

[2] = test system: NRAS mutant melanoma cells; experiment: Global DNA damage, γH2AX staining by flow cytometry; conditions: 1 μM 6-thio-dG for 7 days
Procedure: as §1
For assessment of global DNA damage cells were fixed and permeabilized with BD CytoFix/Perm reagent following the manufacturer's instructions and incubated with γH2AX antibody (Cell Signaling Technology, Danvers, Mass.) for 1 h at room temperature followed by 1 h incubation with Alexa-647 anti-Rabbit secondary antibody. Mean fluorescence staining was quantified by flow cytometry. […]

[3] = test system: detoxifying enzymes SOD2, GPX1 and UCP2; experiment: mRNA levels of antioxidant enzymes by qRT-PCR; conditions: NRAS mutant melanoma cells, 1 μM 6-thio-dG for 7 days
Procedure: FIGS. 3a to 3g provides graphs showing that telomere dysfunction enhances oxidative stress leading to upregulation of an antioxidant program. […] Mitochondrial superoxide production was measured by MitoSox Red fluorescence (FIGS. 3c, and 3d) and expressed as fluorescence relative to vector or DMSO controls. […] FIG. 3f provides a bar graph showing that SOD2 was silenced using shRNA. Transduced M93-047 cells were treated with DMSO or 1 μM of 6-thio-dG and cell death was assessed by Annexin V/PI straining. As presented in FIG. 3g, M93-047 cells were transduced with a SOD2 lentiviral construct or empty vector control (pLX304). Transduced cells were treated with increasing doses (1, 2.5 and 5 μM) of 6-thio-dG for 7 days and cell death was assessed. Data represent average from three independent experiments ±SEM. *p<0.05; **p<0.01; ***p<0.005 in unpaired Student's t-test.
Total RNA (1 μg) was reverse transcribed using Maxima First-Strand cDNA synthesis kit (Thermo Scientific, Waltham, Mass.). Fast SYBR Green Master Mix (Applied Biosystems, Waltham, Mass.) was used with 100 ng cDNA template and 250 nM primers for the evaluation of target gene expression. Amplification was performed in triplicate using ABI PRISM 7500 Fast RT PCR System (Applied Biosystems, Waltham, Mass.) and expression of mRNA was assessed using the […].

[4] = test system: NRAS-WT/BRAF-WT melanoma cells; experiment: Cell death by Annexin V/PI flow cytometry; conditions: 1 μM 6-thio-dG, 5 μM Gam, single agents or in combination
Procedure: FIGS. 5a to 5e provide bar graphs showing that combination treatment with 6-Thio-dG and Gamitrinib (Gam) triggers death selectively in NRAS mutant tumor cells. NRAS-WT/BRAF-WT melanoma cells (FIG. 5a), NRAS-WT/BRAF-mut melanoma cells (FIG. 5b), NRAS mutant neuroblastoma cells (FIG. 5c), NRAS-WT/KRAS-mutant colon cancer cells (FIG. 5d), and NRAS-WT/KRAS-mutant lung cancer cells were treated with 1 μM 6-thio-dG for 5 days (FIG. 5e). At day 5, culture medium was replaced and cells treated with 1 μM 6-thio-dG plus 5 μM Gam for two more days. Cells were stained with Annexin V and PI and percent cell death was determined by FACS. Data represent average of three independent experiments +/−SEM; p values were calculated using un-paired Student's t-test; *p<0.05; **p<0.001.
Cells were seeded in 96-well plates and treated with drugs. After 6 days, cell viability was assessed following 6h incubation with […] Alamar Blue (ThermoFisherScientific, Philadelphia, Pa.) by measuring fluorescence using an EnVision Xcite Multilabel plate reader (Perkin Elmer, Waltham, Mass.). Cell death was determined by flow cytometry using PSVue-643 (Molecular Targeting Technologies) or Annexin V (640919, Biolegend, San Diego, Calif.) and Propidium Iodide (Sigma) staining. Samples were analyzed using a BD LSRII flow cytometer (BD Biosciences, San Jose, Calif.).

Question: What does the source list for Nc1nc2c(ncn2[C@H]2C[C@H](O)[C@@H](CO)O2)c(=S)[nH]1 [6-thio-dG, 6-thio-2′-deoxyguanosine]?
Answer: telomere length (mean TRF) [1]: without evidence for significant telomere shortening; γH2AX [2]: increased levels; GPX1 mRNA levels [3]: upregulation; SOD2 mRNA levels [3]: upregulation; UCP2 mRNA levels [3]: upregulation; cell death [4]: did not induce cell death
